Patent US11596639B2, “Substituted indole Mcl-1 inhibitors” (Vanderbilt University, priority 2016, dated 2023)
Read-outs that look alike come from different tables or passages of the source.

Columns and labels:
Mcl-1 = Mcl-1 (Homo sapiens (Human), UniProt Q07820); assay: Fluorescence polarization anisotropy (FPA) competition assay, FITC-Bak or FITC-Bim BH3 peptide; format: binding; conditions: read-out: Ki for Inhibition of Mcl-1 by FPA assay
[1] = system: H929 human cancer cell lines; assay: Cellular viability / proliferation (Cell TiterGlo, 72 h); format: cell-based
Summary of the method: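 Top dose 50 μM, serially diluted 2-fold, applied one day after seeding (1,000 cells/well, 10% FBS), DMSO below 1%.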

[2] = Homo sapiens, NCI-H929, 72 h, read-out: GI50 on cellular proliferation of H929 human cancer cell lines, H929 cells, 72 h, Cell TiterGlo, 10% FBS

Chain of Mcl-1 (Q07820 172-327): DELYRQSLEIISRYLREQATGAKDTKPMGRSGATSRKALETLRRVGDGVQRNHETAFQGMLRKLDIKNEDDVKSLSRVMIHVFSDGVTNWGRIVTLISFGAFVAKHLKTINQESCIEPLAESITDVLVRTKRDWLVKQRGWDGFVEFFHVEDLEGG

Row | Compound | Ki (Mcl-1) | GI50 [1, 2] | GI50 ([1]; H929 cells, 72 h, Cell TiterGlo, 10% FBS, read-out: GI50 on cellular proliferation of H929 human cancer cell lines)
1 | Cc1cc(OCCCc2c3n(c4c(-c5c(C)nn(C)c5C)c(Cl)ccc24)[C@H](C)CN(c2cccc4cc(C(=O)O)n(Cc5cccnc5)c24)C3=O)cc(C)c1Cl [Example 245, 7-[(4R)-7-chloro-10-[3-(4-chloro-3,5-dimethyl-phenoxy)propyl]-4-methyl-1-oxo-6-(1,3,5-trimethylpyrazol-4-yl)-3,4-dihydropyrazino[1,2-a]indol-2-yl]-1-(3-pyridylmethyl)indole-2-carboxylic acid] | < 1 nM | 900 nM | –
2 | Cc1cc(OCCCc2c3n(c4c(-c5c(C)nn(C)c5C)c(Cl)ccc24)[C@H](C)CN(c2cn(C)c4ccc(C(=O)Nc5ccccc5)cc24)C3=O)cc(C)c1Cl [Example 285, 3-[(4R)-7-chloro-10-[3-(4-chloro-3,5-dimethyl-phenoxy)propyl]-4-methyl-1-oxo-6-(1,3,5-trimethylpyrazol-4-yl)-3,4-dihydropyrazino[1,2-a]indol-2-yl]-1-methyl-N-phenyl-indole-5-carboxamide] | < 1 nM | 5300 nM | –
3 | Cc1cc(OCCCc2c3n(c4c(-c5c(C)nn(C)c5C)c(Cl)ccc24)[C@H](C)CN(c2cccc4cc(C(=O)O)n(CC5CCCO5)c24)C3=O)cc(C)c1Cl (stereo partly drawn) [Example 326, 7-((R)-7-Chloro-10-(3-(4-chloro-3,5-dimethylphenoxy)propyl)-4-methyl-1-oxo-6-(1,3,5-trimethyl-1H-pyrazol-4-yl)-3,4-dihydropyrazino[1,2-a]indol-2(1H)-yl)-1-((tetrahydrofuran-2-yl)methyl)-1H-indole-2-carboxylic acid] | < 1 nM | 590 nM | –
4 | Cc1cc(OCCCc2c3n(c4c(-c5c(C)nn(C)c5C)c(Cl)ccc24)[C@H](C)CN(c2cn(C)c4cc(C#N)ccc24)C3=O)cc(C)c1Cl [Example 206, (R)-3-(7-Chloro-10-(3-(4-chloro-3,5-dimethylphenoxy)propyl)-4-methyl-1-oxo-6-(1,3,5-trimethyl-1H-pyrazol-4-yl)-3,4-dihydropyrazino[1,2-a]indol-2(1H)-yl)-1-methyl-1H-indole-6-carbonitrile] | < 1 nM | 3200 nM | –
5 | Cc1cc(OCCCc2c3n(c4c(-c5c(C)nn(C)c5C)c(Cl)ccc24)[C@H](C)CN(c2cn(C)c4ccc(-c5nnn[nH]5)cc24)C3=O)cc(C)c1Cl [Example 235, (R)-7-Chloro-10-(3-(4-chloro-3,5-dimethylphenoxy)propyl)-4-methyl-2-(1-methyl-5-(1H-tetrazol-5-yl)-1H-indol-3-yl)-&(1,3,5-trimethyl-1H-pyrazol-4-yl)-3,4-dihydropyrazino[1,2-a]indol-1(2H)-one] | < 1 nM | – | 240 nM
6 | CNS(=O)(=O)c1ccc2c(c1)c(N1C[C@@H](C)n3c(c(CCCOc4cc(C)c(Cl)c(C)c4)c4ccc(Cl)c(-c5c(C)nn(C)c5C)c43)C1=O)cn2C [Example 267, (R)-3-(7-chloro-10-(3-(4-chloro-3,5-dimethylphenoxy)propyl)-4-methyl-1-oxo-6-(1,3,5-trimethyl-1H-pyrazol-4-yl)-3,4-dihydropyrazino[1,2-a]indol-2(1H)-yl)-N,1-dimethyl-1H-indole-5-sulfonamide] | 4.7 nM | 3100 nM | –
7 | Cc1cc(OCCCc2c3n(c4c(-c5c(C)nn(C)c5C)c(Cl)ccc24)[C@H](C)CN(c2cccc4cc(C(=O)O)n(CC5(C)COC5)c24)C3=O)cc(C)c1Cl [Example 380, (R)-7-(7-chloro-10-(3-(4-chloro-3,5-dimethylphenoxy)propyl)-4-methyl-1-oxo-6-(1,3,5-trimethyl-1H-pyrazol-4-yl)-3,4-dihydropyrazino[1,2-a]indol-2(1H)-yl)-1-((3-methyloxetan-3-yl)methyl)-1H-indole-2-carboxylic acid] | 7.9 nM | 2500 nM | –
8 | Cc1cc(OCCCc2c3n(c4c(-c5c(C)nn(C)c5C)c(Cl)ccc24)[C@H](C)CN(c2cccc4c2cc(-c2nnco2)n4C)C3=O)cc(C)c1Cl [Example 347, (R)-7-Chloro-10-(3-(4-chloro-3,5-dimethylphenoxy)propyl)-4-methyl-2-(1-methyl-2-(1,3,4-oxadiazol-2-yl)-1H-indol-4-yl)-6-(1,3,5-trimethyl-1H-pyrazol-4-yl)-3,4-dihydropyrazino[1,2-a]indol-1(2H)-one] | 3.6 nM | 1900 nM | –
9 | Cc1cc(OCCCc2c3n(c4c(-c5c(C)nc(CN6CCN(C)C(=O)C6)nc5C)c(Cl)ccc24)[C@H](C)CN(c2cn(C)c4ccc(C(=O)O)cc24)C3=O)cc(C)c1Cl [Example 432, (R)-3-(7-Chloro-10-(3-(4-chloro-3,5-dimethylphenoxy)propyl)-6-(4,6-dimethyl-2-((4-methyl-3-oxopiperazin-1-yl)methyl)pyrimidin-5-yl)-4-methyl-1-oxo-3,4-dihydropyrazino[1,2-a]indol-2(1H)-yl)-1-methyl-1H-indole-5-carboxylic acid] | < 1 nM | 210 nM | –
10 | Cc1cc(OCCCc2c3n(c4c(-c5c(C)nn(C)c5C)c(Cl)ccc24)[C@H](C)CN(c2cn(C)c4cc(C(=N)NO)ccc24)C3=O)cc(C)c1Cl [Example 335, (R)-3-(7-Chloro-10-(3-(4-chloro-3,5-dimethylphenoxy)propyl)-4-methyl-1-oxo-6-(1,3,5-trimethyl-1H-pyrazol-4-yl)-3,4-dihydropyrazino[1,2-a]indol-2(1H)-yl)-N-hydroxy-1-methyl-1H-indole-6-carboximidamide] | 4.5 nM | 910 nM | –
11 | Cc1cc(N2C[C@@H](C)n3c(c(CCCOc4cc(C)c(Cl)c(C)c4)c4ccc(Cl)c(-c5c(C)ncnc5C)c43)C2=O)c2c(c1)cc(C(N)=O)n2Cc1ccccn1 [Example 379, (R)-7-(7-chloro-10-(3-(4-chloro-3,5-dimethylphenoxy)propyl)-6-(4,6-dimethylpyrimidin-5-yl)-4-methyl-1-oxo-3,4-dihydropyrazino[1,2-a]indol-2(1H)-yl)-5-methyl-1-(pyridin-2-ylmethyl)-1H-indole-2-carboxamide] | 3.6 nM | 560 nM | –
12 | Cc1cc(OCCCc2c3n(c4c(-c5c(C)nn(C)c5C)c(Cl)ccc24)[C@H](C)[C@@H](C)N(c2ccc(C(=O)O)cc2)C3=O)cc(C)c1Cl [Example 142, 4-((3R,4R)-7-chloro-10-(3-(4-chloro-3,5-dimethylphenoxy)propyl)-3,4-dimethyl-1-oxo-6-(1,3,5-trimethyl-1H-pyrazol-4-yl)-3,4-dihydropyrazino[1,2-a]indol-2(1H)-yl)benzoic acid] | 3.8 nM | 7400 nM | –
13 | Cc1cc(OCCCc2c3n(c4c(-c5c(C)nn(C)c5C)c(Cl)ccc24)[C@H](C)CN(c2cc4c(C(=O)O)cccc4n2C)C3=O)cc(C)c1Cl [Example 170, 2-[(4R)-7-chloro-10-[3-(4-chloro-3,5-dimethyl-phenoxy)propyl]-4-methyl-1-oxo-6-(1,3,5-trimethylpyrazol-4-yl)-3,4-dihydropyrazino[1,2-a]indol-2-yl]-1-methyl-indole-4-carboxylic acid] | 2.7 nM | 2600 nM | –
14 | Cc1cc(OCCCc2c3n(c4c(-c5c(C)nn(C)c5C)c(Cl)ccc24)[C@H](C)CN(c2cn(C)c4cc(Cl)c(C(=O)O)cc24)C3=O)cc(C)c1Cl [Example 365, (R)-6-Chloro-3-(7-chloro-10-(3-(4-chloro-3,5-dimethylphenoxy)propyl)-4-methyl-1-oxo-6-(1,3,5-trimethyl-1H-pyrazol-4-yl)-3,4-dihydropyrazino[1,2-a]indol-2(1H)-yl)-1-methyl-1H-indole-5-carboxylic acid] | 1.7 nM | 2000 nM | –
